Earlier results as cited in PMC3975045 (ACS medicinal chemistry letters, 2013).

System: OX1 and OX2

[Ala^11,D-Leu^15]orexin B
selectivity for OX2 over OX1: 400 fold
